Source: US20240391940A1, “FUSED RING-CONTAINING COMPOUND, APPLICATION THEREOF, AND COMPOSITION CONTAINING SAME” (GenEros Biopharma Ltd., priority 2020, published 2024)
Where “and” joins values, the source holds several entries; their conditions need not be identical. Identical values can stand only once.

What was measured:
Format in all cases: in vivo, C57BL/6 Apoe KO mice
[1] = tested on: Apoe KO mouse atherosclerosis model; assay: Atherosclerosis model (Apoe KO mice, high-fat diet): blood lipid tests TCHO, TG, LDL-C, HDL-C; parameters: blood lipids (CHO) in Apo E−/− mice / blood lipids (TG) in Apo E−/− mice / blood lipids (HDL-C) in Apo E−/− mice / blood lipids (LDL-C) in Apo E−/− mice: unit not given here; conditions: for blood lipids (CHO) in Apo E−/− mice / blood lipids (HDL-C) in Apo E−/− mice / blood lipids (LDL-C) in Apo E−/− mice / blood lipids (TG) in Apo E−/− mice: HFD + ATV-5 mpk, 5 mg/kg
Procedure: (§1) Method: Apoe KO mice were tested for basal blood lipid levels and divided into a normal control group and a high-fat group. After 8 weeks of housing, the mice from the high-fat group were divided into 4 groups of about 8: a normal diet group (Chow), a high-fat diet model group (HFD), an Atorvastatin positive group (HFD+atorvastatin 5 mpk, QD), and a GEN1-284s group (284-60 mpk, QD). Oral administration was performed for 8 consecutive weeks, and the effect of the compound on the following indicators in Apoe KO mice was observed: 4 blood lipid tests (TC, TG, HDL-C and LDL-C), aortic plaque En-face staining, and pathological oil red staining of the cardiac outflow tract.
(§2) Mice from the groups except for the normal diet control group (Chow) were fed with high-fat feed every day for […]. From week 9, each group was orally administered solvent or a corresponding test compound, and body weight data were recorded every day for 8 consecutive weeks. After the first 8 weeks' high-fat diet, blood samples were taken and centrifuged to separate serum, and the serum was tested for blood lipid levels (TCHO, TG, LDL-C and HDL-C). The mice were randomly grouped according to the TCHO results and body weight. During the subsequent 8 weeks of administration, blood lipid tests (TCHO, TG, LDL-C and HDL-C) were run once every 4 weeks.
Mice were fasted overnight, and blood (150 μL) was collected via mandibular blood sampling or eye ball removal (for endpoint only) and left at room temperature for 2 h. The blood was centrifuged at 4° C. at 7000 rpm for 10 min, and serum was pipetted, quick-frozen in dry ice and then stored at −80° C. before analysis. The serum was tested for the biochemical indicators TCHO, TG, LDL-C and HDL-C using kits and a microplate reader.

[2] = tested on: Apoe KO mouse atherosclerosis model; assay: Atherosclerosis model: aortic plaque En-face staining and plaque area
Procedure: as §1, §2
At the end of the experiment, the mice were euthanized by CO2 inhalation, and their hearts and aortas (from the aortic arch to the iliac artery) were isolated. The isolated artery was dissected longitudinally from the aortic arch to the iliac artery, fixed in 4% paraformaldehyde for 30 min, synchronized with 60% isopropanol for 10 min, then stained in 60% oil red for 30 min, and then washed with 60% isopropanol 3 times for 5 min each time. Finally, the stained aorta was washed with deionized water and photographed. The proportion of red plaque areas was measured using Image Pro Plus 6.0 (Media Cybernetics, MD, US).

[3] = tested on: Apoe KO mouse atherosclerosis model; assay: Atherosclerosis model: plaques in the cardiac (left ventricular) outflow tract
Procedure: as §1, §2
Mouse heart samples were fixed overnight in 4% paraformaldehyde solution and dehydrated in sucrose solution. Then, the samples were embedded with OCT (Sakura, Japan) under a stereo microscope and made into 10 μm frozen sections. The sections were stained with oil red ORO and then subjected to routine pathological examinations. Images of the outflow tract were acquired under an optical microscope at 4× magnification, and high-quality morphological observations were carried out using an eyepiece with 20× magnification. The percentage of intimal lesions in the cardiac outflow tract was calculated. The detection criteria followed the criteria for histological classification of human atherosclerotic disease, which are described in detail below:
The area of plaques in the left ventricular outflow tract was measured using a microscope, and the proportion of plaques in the left ventricular outflow tract was calculated; this value reflects the degree of stenosis in the cardiac outflow tract vessel.

[4] = Apoe KO mice, high-fat diet, atorvastatin 5 mpk QD oral

Compound: CC(C)c1c(C(=O)Nc2ccccc2)c(-c2ccccc2)c(-c2ccc(F)cc2)n1CC[C@@H](O)C[C@@H](O)CC(=O)O [ATV]
- blood lipids (CHO) in Apo E−/− mice ([1]; Time 1, individual mice): 1.195 and 1.061 and 1.217 and 1.075 and 1.359 and 0.7849 and 0.5037
- blood lipids (HDL-C) in Apo E−/− mice ([1]; Time 1, individual mice): 0.4304 and 1.163 and 1.735 and 1.563 and 1.618 and 1.29 and 1.027
- blood lipids (LDL-C) in Apo E−/− mice ([1]; Time 1, individual mice): 1.101 and 1.061 and −0.07821 and 1.123 and 1.296 and 0.676 and 1.006
- blood lipids (TG) in Apo E−/− mice ([1]; Time 1, individual mice): 1.038 and 0.845 and 1.136 and 1.282 and 0.875 and 1.001 and 0.9307
- blood lipids (CHO) in Apo E−/− mice ([1]; Time 2, individual mice): 0.8468 and 0.9207 and 0.799 and 1.023 and 0.6043 and 0.8602 and 0.8475 and 0.8932
- blood lipids (HDL-C) in Apo E−/− mice ([1]; Time 2, individual mice): 1.178 and 0.769 and 0.5861 and 0.7669 and 0.6443 and 0.8023 and 0.8584 and 0.9664
- blood lipids (LDL-C) in Apo E−/− mice ([1]; Time 2, individual mice): 0.7237 and 0.8132 and 0.6614 and 1.342 and 0.603 and 0.5797 and 1.152 and 1.234
- blood lipids (TG) in Apo E−/− mice ([1]; Time 2, individual mice): 1.204 and 0.9447 and 1.095 and 1.111 and 0.7477 and 0.9934 and 0.7632 and 0.9336
- blood lipids (CHO) in Apo E−/− mice ([1]; Time 3, individual mice): 1.237 and 0.9298 and 1.587 and 1.424 and 1.118 and 0.7614 and 1.278 and 1.057
- blood lipids (HDL-C) in Apo E−/− mice ([1]; Time 3, individual mice): 0.713 (2×) and 0.8416 and 0.6487 and 1.292 and 1.1791 and 0.8576 (2×)
- blood lipids (LDL-C) in Apo E−/− mice ([1]; Time 3, individual mice): 0.9753 and 0.8023 and 0.8722 and 0.6477 and 0.7655 and 0.4564 and 1.218 and 1.421
- blood lipids (TG) in Apo E−/− mice ([1]; Time 3, individual mice): 1.341 and 0.9611 and 1.459 and 1.456 and 0.9501 and 1.063 and 1.577 and 0.6584
- blood lipids (CHO) in Apo E−/− mice ([1]; Time 4, individual mice): 1.183 and 1.199 and 1.344 and 1.673 and 1 and 1.22 and 0.7566 and 1.398
- blood lipids (HDL-C) in Apo E−/− mice ([1]; Time 4, individual mice): 0.9522 and 1.062 and 0.6434 and 4.724 and 0.6654 and 1.371 and 0.6875 and 0.8419
- blood lipids (LDL-C) in Apo E−/− mice ([1]; Time 4, individual mice): 1.05 and 1.675 and 0.9086 and 0.8511 and 1.319 and 0.3604 and 0.6019 and 1.123
- blood lipids (TG) in Apo E−/− mice ([1]; Time 4, individual mice): 1.516 and 1.429 and 2.38 and 2.165 and 1.213 and 1.476 and 0.5106 and 0.9949
- atherosclerotic plaques in mice (proportion of arterial plaque area) ([2]; HFD + ATV-5 mpk, PO QD 8 W, individual mice, 5 mg/kg, in % (unit assumed)): 10.98 and 13.52 and 8.609 and 9.551 and 9.286 and 13.92 and 13.86
- plaques in the cardiac outflow tracts of mice (proportion of plaques in the left ventricular outflow tract) ([3]; HFD + ATV-5 mpk, PO QD 8 W, individual mice, 5 mg/kg, in %): 1.923 and 8.46 and 9.071 and 7.844 and 1.618 and 3.771 and 2.279 and 8.38

Compound: CC(C)c1c(C(=O)Nc2ccccc2)c(-c2ccccc2)c(-c2ccc(F)cc2)n1CC[C@@H](O)C[C@@H](O)CC(=O)O [atorvastatin, reference compound]
- Effect on dyslipidemia ([1]; Apoe KO mice, high-fat diet, atorvastatin 5 mpk QD oral, 8 weeks): dyslipidemia was relieved
- Proportion of the arterial plaque area [2, 4]: significantly reduced
- Left ventricular outflow tract plaques [3, 4]: significantly fewer plaques than the HFD group
